{"source": "paper PMC8954523", "about": "(Pharmaceutics, 2022)", "key": {"[1]": {"assay": "Hypothetical transfer thermodynamic functions from solvation functions", "type": "physicochemical", "conditions": "298.15 K; for TΔStr / ΔGtr / ΔHtr / ΔStr / ζHtr / ζTStr: hypothetical", "method": "The impact of the specific interactions on the solvation process was estimated by analyzing the thermodynamic functions of the hypothetical transfer from n-hexane—an inert solvent interacting with the drugs only non-specifically—to water, 1-octanol, and ethanol. Besides this, the hypothetic transfer from water to 1-octanol is significant as a model of the drug penetrating through the lipophilic biological membranes. The transferring thermodynamic parameters listed in Table 4 were calculated as a difference (taking into account the sign of the thermodynamic function) between the respective functions in a solvent (1-octanol/water/ethanol) and in n-hexane and between 1-octanol and water.\nThe relationship between the specific and non-specific solvation thermodynamic contributions was disclosed using the εH and εS parameters calculated as follows:(20) εH=(ΔHspec/ΔHnon−spec)⋅100%where ΔHspec=ΔHtr(n−hexane→solvent)and ΔHnon−spec=ΔHsolv(n−hexane) (21) εS=(ΔSspec/ΔSnon−spec)⋅100%where ΔSspec=ΔStr(n−hexane→solvent)and ΔSnon−spec=ΔSsolv(n−hexane)"}, "[2]": {"assay": "Apparent distribution coefficient, n-hexane/water, isothermal shake-flask", "type": "physicochemical", "conditions": "298.15 K", "method": "The well-known isothermal shake-flask method was applied for the determination of the apparent distribution coefficients in the 1-octanol/water ( Dappoct/w ) and n-hexane/water ( Dapphex/w ) systems. The mutually saturated solvents were prepared by mixing water and organic phases for 24 h and settling and separating from each other. The stock solutions of the drug were made from 1-octanol saturated with water for the 1-octanol/water distribution, and n-hexane saturated with water for the n-hexane/water system. An aliquot of the stock solution was placed in a glass vial together with an aliquot of the respective phase and mixed for 24 h at five temperatures, from 293.15 to 313.15 K (±0.1 K). The concentrations of the compounds were determined spectrophotometrically (Shimadzu 1800, Kyoto, Japan) in a UV region, with an accuracy of 2–4%. The reported experimental values represent the average of at least four replicate experiments.\n(§1) The apparent distribution coefficients were calculated from the molar concentrations of the substance in the phases using the following equation:(10) DCorg/w=C2org/w/C2w/org where DCorg/w is the apparent distribution coefficient, C2org/w and C2w/org are the concentrations (M) of the compound after the distribution in the 1-octanol or n-hexane and water phases, respectively. The apparent distribution coefficients in the mole fraction scale ( DXorg/w ) were calculated by the equation:(11) DXorg/w=X2org/w/X2w/org where X2org/w and X2w/org are the concentrations (mole fract.) of the compound after distribution. The standard Gibbs energy of the transfer ( ΔGtr0) from water to the organic phase was calculated as follows:(12) ΔGtr0=−RT(lnDXorg/w)"}, "[3]": {"assay": "Transfer thermodynamic functions from distribution experiments (real transfer)", "type": "physicochemical", "conditions": "298.15 K", "method": "as §1\nThe transfer enthalpy ( ΔHtr0) was derived from the temperature dependences of the distribution coefficients by the van’t Hoff approach as:(13) ∂(lnDXorg/w)/∂T=ΔHtr0/RT^2\nThe standard transfer entropy ( ΔStr0 ) was determined by the equation:(14) ΔGtr0=ΔHtr0−TΔStr0\nAs follows, additional information on the thermodynamic functions of this parameter (enthalpies and entropies) was obtained from the temperature dependences in order to disclose the transfer (n-hexane → 1-octanol) thermodynamic mechanisms. To this end, the ∆ln DX values (expressed in mole fraction units) characterizing the transfer (n-hexane → 1-octanol) were calculated as ∆ln DX = ln DXoct/w − ln DXhex/w and the respective thermodynamic functions were determined using Equations (12)–(14). The resulting temperature dependences and the contributions of the enthalpy and entropy terms to the free Gibbs energy of the hypothetical and “real” transfers are shown in Figure 5 and Table 6. […] At the same time, the thermodynamic mechanism of the (n-hexane → 1-octanol) transfer differs from the (water → organic solvents) transitions. In particular, the (n-hexane → 1-octanol) transfer process is enthalpy determined (| ΔHtr0 | > | TΔStr0 |) similar to the (water → 1-octanol) one. Nevertheless, TΔStr0 < 0 testifies to the ordering of the system as opposed to water → 1-octanol and water → n-hexane ( TΔStr0 > 0). It can be concluded that the mechanism of the (n-hexane → 1-octanol) transfer is absolutely different from the (water → n-hexane) and partially agrees with the (water → 1-octanol) transition. Importantly, the regularities estimated from the transferring diagram analysis match the results obtained using the Hansen parameters ( Δδt ^water > Δδt ^n-hexane > Δδt ^1-octanol)."}, "[4]": {"assay": "Hypothetical transfer thermodynamic functions from solvation functions", "type": "physicochemical", "conditions": "water → n-hexane"}, "[5]": {"conditions": "cited from earlier work"}, "[6]": {"conditions": "n-hexane → 1-octanol, from Δ lnDX"}, "[7]": {"conditions": "water → 1-octanol, real transfer"}, "[8]": {"conditions": "water → n-hexane, real transfer"}}, "note": "Values joined by “and” are separate entries in the source; they are usually repeats but may differ in a detail not shown here. Equal values may be shown once. Read-outs that look alike come from different tables or passages of the source.", "data": [{"molecule": "CC(O)(CS(=O)(=O)c1ccc(F)cc1)C(=O)Nc1ccc(C#N)c(C(F)(F)F)c1", "note": "(stereo not shown) [BCL, bicalutamide]", "values": [{"measurement": "εH", "setting": "[1]; n-hexane → 1-octanol", "result": 36.6, "unit": "%"}, {"measurement": "εS", "setting": "[1]; n-hexane → 1-octanol", "result": 30.2, "unit": "%"}, {"measurement": "TΔStr", "setting": "[1]; n-hexane → 1-octanol", "result": "−13.9", "unit": "kJ⋅mol^−1"}, {"measurement": "ΔGtr", "setting": "[1]; n-hexane → 1-octanol", "result": "−13.7", "unit": "kJ⋅mol^−1"}, {"measurement": "ΔHtr", "setting": "[1]; n-hexane → 1-octanol", "result": "−27.6", "unit": "kJ⋅mol^−1"}, {"measurement": "ΔStr", "setting": "[1]; n-hexane → 1-octanol", "result": "−46.6", "unit": "J⋅mol^−1⋅K^−1"}, {"measurement": "ζHtr", "setting": "[1]; n-hexane → 1-octanol", "result": 66.5, "unit": "%"}, {"measurement": "ζTStr", "setting": "[1]; n-hexane → 1-octanol", "result": 33.5, "unit": "%"}, {"measurement": "εS", "setting": "[1]; n-hexane → ethanol", "result": 5.0, "unit": "%"}, {"measurement": "TΔStr", "setting": "[1]; n-hexane → ethanol", "result": "−2.3", "unit": "kJ⋅mol^−1"}, {"measurement": "ΔGtr", "setting": "[1]; n-hexane → ethanol", "result": "−18", "unit": "kJ⋅mol^−1"}, {"measurement": "ΔHtr", "setting": "[1]; n-hexane → ethanol", "result": "−20.3", "unit": "kJ⋅mol^−1"}, {"measurement": "ΔStr", "setting": "[1]; n-hexane → ethanol", "result": "−7.7", "unit": "J⋅mol^−1⋅K^−1"}, {"measurement": "ζHtr", "setting": "[1]; n-hexane → ethanol", "result": 89.8, "unit": "%"}, {"measurement": "ζTStr", "setting": "[1]; n-hexane → ethanol", "result": 10.2, "unit": "%"}, {"measurement": "εH", "setting": "[1]; n-hexane → water", "result": 16.4, "unit": "%"}, {"measurement": "εS", "setting": "[1]; n-hexane → water", "result": 37.4, "unit": "%"}, {"measurement": "TΔStr", "setting": "[1]; n-hexane → water", "result": "−17.2", "unit": "kJ⋅mol^−1"}, {"measurement": "ΔGtr", "setting": "[1]; n-hexane → water", "result": 4.8, "unit": "kJ⋅mol^−1"}, {"measurement": "ΔHtr", "setting": "[1]; n-hexane → water", "result": "−12.4", "unit": "kJ⋅mol^−1"}, {"measurement": "ΔStr", "setting": "[1]; n-hexane → water", "result": "−57.7", "unit": "J⋅mol^−1⋅K^−1"}, {"measurement": "ζHtr", "setting": "[1]; n-hexane → water", "result": 41.9, "unit": "%"}, {"measurement": "ζTStr", "setting": "[1]; n-hexane → water", "result": 58.1, "unit": "%"}, {"measurement": "TΔStr", "setting": "[1]; water → 1-octanol", "result": 3.3, "unit": "kJ⋅mol^−1"}, {"measurement": "ΔGtr", "setting": "[1]; water → 1-octanol", "result": "−18.5", "unit": "kJ⋅mol^−1"}, {"measurement": "ΔHtr", "setting": "[1]; water → 1-octanol", "result": "−15.2", "unit": "kJ⋅mol^−1"}, {"measurement": "ΔStr", "setting": "[1]; water → 1-octanol", "result": 11.1, "unit": "J⋅mol^−1⋅K^−1"}, {"measurement": "ζHtr", "setting": "[1]; water → 1-octanol", "result": 82.2, "unit": "%"}, {"measurement": "ζTStr", "setting": "[1]; water → 1-octanol", "result": 17.8, "unit": "%"}, {"measurement": "experimental over calculated distribution coefficient", "setting": "[2]; n-hexane/water", "result": 1.9, "unit": "fold"}, {"measurement": "DChex/w, experimental apparent distribution coefficient", "setting": "[2]; n-hexane/water, molarity scale", "result": "1.88 ± 0.04"}, {"measurement": "DC/calchex/w, calculated distribution coefficient", "setting": "[2]; ratio of molar solubilities in n-hexane and water", "result": 1.00}, {"measurement": "DXorg/w (Δ lnDX parameter line)", "setting": "[3]; 1-octanol/n-hexane (n-hexane → 1-octanol), mole fraction scale", "result": 425.33}, {"measurement": "TΔStr0", "setting": "[3]; [6]", "result": -4.18, "unit": "kcal/mol"}, {"measurement": "ΔGtr0", "setting": "[3]; [6]", "result": "-3.59 ± 0.096", "unit": "kcal/mol"}, {"measurement": "ΔHtr0", "setting": "[3]; [6]", "result": "-7.77 ± 0.382", "unit": "kcal/mol"}, {"measurement": "ΔStr0", "setting": "[3]; [6]", "result": "−58.7 ± 4.1", "unit": "J⋅mol^−1⋅K^−1"}, {"measurement": "TΔStr0", "setting": "[3]; [7]", "result": 1.55, "unit": "kcal/mol"}, {"measurement": "ΔGtr0", "setting": "[3]; [7]", "result": "-5.14 kcal/mol and -5.14 ± 0.096 kcal/mol"}, {"measurement": "ΔHtr0", "setting": "[3]; [7]", "result": "-3.59 ± 0.048", "unit": "kcal/mol"}, {"measurement": "ΔStr0", "setting": "[3]; [7]", "result": "21.8 ± 0.7", "unit": "J⋅mol^−1⋅K^−1"}, {"measurement": "TΔStr0", "setting": "[3]; [8]", "result": 5.76, "unit": "kcal/mol"}, {"measurement": "ΔGtr0", "setting": "[3]; [8]", "result": "-1.55 kcal/mol and -1.55 ± 0.048 kcal/mol"}, {"measurement": "ΔHtr0", "setting": "[3]; [8]", "result": "4.21 ± 0.43", "unit": "kcal/mol"}, {"measurement": "ΔStr0", "setting": "[3]; [8]", "result": "80.8 ± 9.9", "unit": "J⋅mol^−1⋅K^−1"}, {"measurement": "ΔGtr", "setting": "[4]", "result": "−4.8", "unit": "kJ⋅mol^−1"}, {"measurement": "solubility", "setting": "[5]; aqueous", "result": "less than 5 mg∙L^−1"}, {"measurement": "aqueous solubility", "setting": "[5]; ref 10", "result": "approximately 3.7 μg·mL^−1"}, {"measurement": "aqueous solubility", "setting": "[5]; ref 11", "result": 8.85, "unit": "µg/mL"}]}]}
